According to PubChem BioAssay AID467 (The Scripps Research Institute Molecular Screening Center, 2006):
Active and inactive are the calls of the source. The rule behind the calls is not given here.

Test system: parental cell line counter screen, S1P1 agonist assay readout
Experiment: signal in parental cells, counter-screen for S1P1 agonist project (AID 467);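 note: agonist potency measured against forskolin stimulation plus an EC20 level of SEW2871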

`O=C(CSc1nnc(-c2ccc(Cl)cc2)n1Cc1ccco1)c1cccs1` was tested, and the EC50 was > 30 µM (inactive).
In the case of `CCCc1ccc(OCc2nc(-c3ccc(NC(=O)c4ccco4)cc3)no2)cc1`, the EC50 is reported as > 95.1 µM (inactive).
For `Cc1oc2cc(O)cc(O)c2c(=O)c1-c1ccc2c(c1)OCCCO2`, the EC50 was > 30 µM (inactive).
`Cc1cccc(OCCCCc2c(C)n[nH]c2C)c1` was tested, and the EC50 was > 30 µM (inactive).
In the case of `Clc1ccc(OCCN2CCN(c3ncnc4sccc34)CC2)cc1`, the EC50 is reported as 2.63 µM.
In the case of `COCC(=O)Nc1cccc(C(F)(F)F)c1`, the EC50 is reported as > 95.1 µM (inactive).
`COc1ccc(-c2noc(-c3cc(C)cc(C)c3)n2)cc1OC` was tested, and the EC50 was > 95.1 µM (inactive).
In the case of `COC(=O)c1ccc(CSc2nc3ccccc3c(=O)n2Cc2ccco2)o1`, the EC50 is reported as > 95.1 µM (inactive).
In the case of `CC1CCCC(C)N1C(=O)CN1CCN(c2nc(-c3ccc(F)cc3)cs2)CC1` (stereo unspecified), the EC50 is reported as 21.7 µM (inactive).
`C=C(C)COc1ccc(-c2nc(N)nc(C)c2Oc2ccccc2OC)c(O)c1` was tested, and the EC50 was > 10 µM (inactive).
`CCOC(=O)/C=C/S(=O)(=O)c1ccc(NC(C)=O)cc1` showed an EC50 of 3.96 µM.
`COc1cccc(-c2nc(-c3ccc(NC(=O)c4cccnc4)cc3)no2)c1` was tested, and the EC50 was > 95.1 µM (inactive).
For `COc1ccccc1-n1nnnc1S(=O)(=O)Cc1ccc(Cl)cc1`, the EC50 was 3.05 µM.
With `Cc1cc(/C=N/n2cnnc2)c(C)n1-c1ccc(OCc2ccccc2F)cc1` the EC50 was 7.37 µM.
For `CCOC(=O)N1CCC(NC(=O)C2CCCN(Cc3nc(-c4cccc(Cl)c4)oc3C)C2)CC1` (stereo unspecified), the EC50 was > 95.1 µM (inactive).
`Cc1nc2sccn2c1-c1csc(NCc2ccccc2)n1` was tested, and the EC50 was 20 µM (inactive).
`COc1ccccc1N/C(N)=N/c1nc(CSc2ccc(C)cc2)cc(=O)[nH]1` was tested, and the EC50 was > 95.1 µM (inactive).
`CC(=O)c1ccc(N2CCN(c3ccc(C(F)(F)F)cn3)CC2)cc1` was tested, and the EC50 was > 95.1 µM (inactive).
For `Cc1ccc2[nH]c3c(NCc4ccco4)ncnc3c2c1`, the EC50 was 30.9 µM (inactive).
For `CCOC(=O)CN(C(=O)CSc1nnc(-c2cccc(OC)c2)o1)c1ccc(F)cc1`, the EC50 was > 95.1 µM (inactive).
`CC(C)(C)OC(=O)N[C@@H](Cc1ccccc1)c1nnc(S(=O)(=O)Cc2ccccc2)o1` showed an EC50 of 1.51 µM.
`O=C(C1CCN(S(=O)(=O)c2cccc3cccnc23)CC1)N1CCN(c2ccc(Cl)cc2)CC1` was tested, and the EC50 was 38.3 µM (inactive).
In the case of `CCOc1ccc(S(=O)(=O)N2CCN(c3ccc(C)cc3C)CC2)cc1`, the EC50 is reported as > 95.1 µM (inactive).
With `CCC(=NC(C)c1ccccc1)c1c(O)n(C)c(=O)n(C)c1=O` (stereo unspecified) the EC50 was > 30 µM (inactive).
`COc1ccc2c(c1)-c1nc(NC(=O)c3cccs3)sc1CC2` was tested, and the EC50 was 16.2 µM (inactive).
`COC(=O)c1ccc(C(c2c(N)n(CC(C)C)c(=O)[nH]c2=O)N2CCN(c3ccccc3)CC2)cc1` (stereo unspecified) was tested, and the EC50 was > 95.1 µM (inactive).
With `Clc1ccc(NCn2cncn2)nc1` the EC50 was > 95.1 µM (inactive).
In the case of `CCCN(C(=O)c1cccs1)c1nnc(-c2ccncc2)s1`, the EC50 is reported as > 95.1 µM (inactive).
For `CCN(CC)C(=O)Oc1ccc2c(=O)c(-c3ccc(OC)cc3)coc2c1`, the EC50 was > 95.1 µM (inactive).
Work on `c1ccc2c(c1)CCN(c1ncnc3c1[nH]c1ccccc13)C2` yielded an EC50 of 5.88 µM.
With `COc1ccc(-n2c(C)c(C(C)=O)c3cc(O)ccc32)cc1` the EC50 was > 95.1 µM (inactive).
For `Oc1ccc(-c2nnc(SCC3CCCCC3)o2)cc1`, the EC50 was > 10 µM (inactive).
`COc1ccc(N=c2scc(-c3ccc(S(=O)(=O)N4CCOCC4)cc3)n2CCCO)cc1` was tested, and the EC50 was > 30 µM (inactive).
For `Cc1nnc(SC(=O)N2c3ccccc3Sc3ccccc32)s1`, the EC50 was 3.42 µM.
For `c1ccc(-c2ccc(-c3nc(-c4cccnc4)no3)cc2)cc1`, the EC50 was > 95.1 µM (inactive).
In the case of `COc1ccccc1Oc1ccc2c(c1)C(=O)N(c1cccc(O)c1)C2=O`, the EC50 is reported as > 30 µM (inactive).
In the case of `COc1ccc(-c2cn3c(C)c(C(=O)N4CCCc5ccccc54)sc3n2)cc1`, the EC50 is reported as > 95.1 µM (inactive).
With `CCC(NC(=O)Nc1nnc(C(F)(F)F)s1)(C(F)(F)F)C(F)(F)F` the EC50 was > 95.1 µM (inactive).
With `CC(C)N1C(=O)CCC1C(=O)N1CCC(Cc2ccccc2)CC1` (stereo unspecified) the EC50 was > 95.1 µM (inactive).
`COc1ccc2c(c1)CCc1c(C(=O)NC3CCCCC3)noc1-2` was tested, and the EC50 was > 95.1 µM (inactive).
For `CC(=O)c1sc(NC(=O)C2(F)C(F)(F)C(F)(F)C(F)(F)C(F)(F)C2(F)F)nc1C`, the EC50 was 31.2 µM (inactive).
For `COc1ccc(CNC(=O)c2cc3c(C)nc4ccccc4c3o2)c(OC)c1`, the EC50 was > 95.1 µM (inactive).
For `CCC(=O)Nc1ccc2c(c1)C(=O)N(C1CCCCC1)C2=O`, the EC50 was > 95.1 µM (inactive).
`CC(=O)N1CCCc2cc(S(=O)(=O)NCCC3=CCCCC3)ccc21` was tested, and the EC50 was > 95.1 µM (inactive).
With `Cc1cc(N2CCN(C/C=C/c3ccccc3)CC2)n2ncnc2n1` the EC50 was > 95.1 µM (inactive).
In the case of `CC(C)c1cc(C(F)(F)F)n2nc(C(=O)Nc3ccc4c(c3)OCO4)cc2n1`, the EC50 is reported as > 95.1 µM (inactive).
For `c1ccc(-c2ccc(-c3nc(-c4ccncc4)no3)cc2)cc1`, the EC50 was > 95.1 µM (inactive).
In the case of `COc1cc(C#CC#CCN2CCCCC2)ccc1O`, the EC50 is reported as 63.9 µM (inactive).
`COc1ccc(/C=N/O)cc1COc1ccc(NC(C)=O)cc1` was tested, and the EC50 was > 95.1 µM (inactive).
For `COc1cc(CSc2nnnn2-c2ccc(C)cc2)cc(OC)c1OC`, the EC50 was > 30 µM (inactive).
`C=CS(=O)(=O)c1ccc(Oc2ccc(S(=O)(=O)C=C)cc2)cc1` showed an EC50 of 1.06 µM.
Work on `O=S1(=O)C=C(Sc2nnc(-c3ccccc3)o2)c2ccccc21` yielded an EC50 of 3.16 µM.
In the case of `O=C(c1ccco1)N1CCN(c2ncnc3c2[nH]c2ccc(Br)cc23)CC1`, the EC50 is reported as > 10 µM (inactive).
With `CN(C)c1oc(-c2ccc(OCc3ccccc3)cc2)nc1C#N` the EC50 was > 95.1 µM (inactive).
With `O=S(=O)(Nc1ccc2c(c1)OCCO2)c1ccc2oc3ccccc3c2c1` the EC50 was 16.4 µM (inactive).
With `CS(=O)(=O)n1nc(OC(=O)c2cccc3ccccc23)cc1N` the EC50 was 12 µM (inactive).
`COc1ccc2[nH]c(=O)c3c(c2c1)OC(C)(C)C=C3` was tested, and the EC50 was 6.75 µM.
In the case of `Nc1nonc1C(=O)NCCNCc1cc(Br)ccc1OCc1ccc(F)cc1`, the EC50 is reported as 30.5 µM (inactive).
`Cc1cc(/C=N/n2cnnc2)c(C)n1-c1ccc(OCc2ccc(F)cc2)cc1` was tested, and the EC50 was 6.71 µM.
In the case of `O=C(NCc1ccccc1)N1CCN(c2ccc(Cl)c(Cl)c2)CC1`, the EC50 is reported as > 95.1 µM (inactive).
For `CCOc1ccc(-c2nnc(-c3cccs3)o2)cc1OCC`, the EC50 was > 95.1 µM (inactive).
With `COc1ccc(CCNc2c(C)c(C)nc3ncnn23)cc1` the EC50 was 43.4 µM (inactive).
For `CCOC(=O)C1CCN(c2ncnc3c2oc2ccccc23)CC1`, the EC50 was 45.1 µM (inactive).
With `N/C(=N\c1nc2c(c(=O)[nH]1)CCCC2)Nc1ccccc1` the EC50 was > 95.1 µM (inactive).
With `O=S1(=O)C=C(Sc2nc3cc(Cl)ccc3o2)c2ccccc21` the EC50 was 6.35 µM.
For `COc1ccc(S(=O)(=O)Cc2ccc(C(=O)N3CCN(c4cccc(C)c4C)CC3)o2)cc1`, the EC50 was > 30 µM (inactive).
With `Cc1ccc(C(C)C)c(OCc2nc(-c3nonc3N)no2)c1` the EC50 was > 30 µM (inactive).
With `O=C(Nc1ccc(Cl)cc1)N1CCC(c2nc(-c3ccc(F)cc3)no2)CC1` the EC50 was 20 µM (inactive).
In the case of `O=C(NCc1ccc2c(c1)OCO2)C1CC(=O)N(C2CCCCCCC2)C1` (stereo unspecified), the EC50 is reported as > 95.1 µM (inactive).
In the case of `Cc1ccc(Cl)cc1N1CCN(C(=O)C2CCN(c3nnc(-n4cccc4)s3)CC2)CC1`, the EC50 is reported as > 95.1 µM (inactive).
In the case of `CC(C)(C)C1CCC2(CC1)C(C#N)=C(SCC(=O)Nc1ccccc1)NC(=O)C2C#N` (stereo unspecified), the EC50 is reported as 7.15 µM.
With `O=S(=O)(CCSc1ccccn1)c1nc2ccccc2s1` the EC50 was 4.71 µM.
In the case of `Cc1n[nH]c(C)c1N1C(=O)c2cccc3c(N4CCCCCC4)ccc(c23)C1=O`, the EC50 is reported as 37 µM (inactive).
With `Cc1cc(C)n2nc(SCC(=O)c3cc(C)n(-c4cc(C)on4)c3C)nc2n1` the EC50 was 63.5 µM (inactive).
In the case of `CCN=c1sc(C(=O)NCCc2ccccc2)cc(=O)n1CC`, the EC50 is reported as 53.2 µM (inactive).
For `Cc1noc(C)c1S(=O)(=O)N(CC(=O)Nc1ccc2c(c1)OCCO2)c1ccc(C(C)C)cc1`, the EC50 was > 95.1 µM (inactive).
With `Cc1cc(C(=O)CSc2nnc(-c3ccco3)o2)c(C)n1-c1ccc2c(c1)OCCO2` the EC50 was > 10 µM (inactive).
For `Cc1cc(-c2nnc(-c3ccccc3)c(-c3ccccc3)n2)c(C)o1`, the EC50 was 33.7 µM (inactive).
In the case of `COCCn1c(C)cc(C(=O)CSc2nc3ccccc3o2)c1C`, the EC50 is reported as > 95.1 µM (inactive).
`CC(C)(CC(=O)N1CCN(c2ccc(Cl)cc2)CC1)CC1=NS(=O)(=O)c2ccccc2N1` was tested, and the EC50 was 19.9 µM (inactive).
`Nc1c(C(=O)NC2CCCC2)sc2nc(-c3cccs3)ccc12` was tested, and the EC50 was 23.1 µM (inactive).
For `CCOC(=O)c1sc2nc(NC(=O)C(C)(C)C)sc2c1C`, the EC50 was > 10 µM (inactive).
With `Cc1cc(C(=O)N2CCN(C(c3ccccc3)c3ccccc3)CC2)on1` the EC50 was > 95.1 µM (inactive).
For `CN(CC1CCCO1)S(=O)(=O)c1ccc(C(=O)Nc2nc(-c3ccccn3)cs2)cc1` (stereo unspecified), the EC50 was > 30 µM (inactive).
For `CCn1c(SCC(=O)Nc2nc3ccc(C)cc3s2)nc2c(c1=O)SC(C)C2` (stereo unspecified), the EC50 was > 10 µM (inactive).
For `O=C(Nc1ncc(Br)s1)C(Cc1ccccc1)n1cccc1` (stereo unspecified), the EC50 was > 10 µM (inactive).
`CCOc1ccc(C(=O)Nc2c(C(N)=O)oc3ccccc23)cc1` was tested, and the EC50 was > 95.1 µM (inactive).
With `O=C(Nc1nc(-c2ccc3c(c2)OCO3)cs1)c1ccncc1` the EC50 was 28.9 µM (inactive).
`CCCc1ccc(Oc2cn[nH]c2-c2ccc(O)cc2O)cc1` was tested, and the EC50 was > 10 µM (inactive).
With `N#CCCS(=O)(=O)c1nnnn1-c1ccccc1` the EC50 was 1.34 µM.
In the case of `O=S1(=O)Nc2c(ccc3cccnc23)-c2ccccc21`, the EC50 is reported as > 95.1 µM (inactive).
`COc1ccccc1OCCCCCc1c(C)n[nH]c1C` was tested, and the EC50 was 57.2 µM (inactive).
With `CCCn1c(CN2CCN(c3cccc(Cl)c3)CC2)nc2c1c(=O)n(C)c(=O)n2C` the EC50 was > 95.1 µM (inactive).
For `CCNc1nc2c(c(=O)n(C)c(=O)n2C)n1Cc1ccc(Cl)cc1`, the EC50 was > 95.1 µM (inactive).
For `Clc1ccc(OCc2nnc(-c3ccccc3Br)o2)c(Cl)c1`, the EC50 was > 95.1 µM (inactive).
In the case of `c1ccc(N2CCN(c3ncnc4c3oc3ccccc34)CC2)cc1`, the EC50 is reported as > 95.1 µM (inactive).
`O=C(CSc1ncnc2c1oc1ccccc12)N1CCCc2ccccc21` was tested, and the EC50 was > 10 µM (inactive).
For `Cc1nn(Cc2ccc(Cl)c(Cl)c2)c(C)c1NC(=O)c1cc(C2CC2)on1`, the EC50 was 41.2 µM (inactive).
In the case of `Cc1nn(-c2nc3ccccc3s2)c(N)c1-c1ccccc1`, the EC50 is reported as > 95.1 µM (inactive).
In the case of `CCCCOc1ncnc2c1[nH]c1ccc(F)cc12`, the EC50 is reported as > 95.1 µM (inactive).
With `O=C(CSCC(=O)N1CCCCC1)Nc1nc(-c2cccs2)cs1` the EC50 was > 30 µM (inactive).
